# Columns and labels:
# [1] = system: c57BL db/db male mice; experiment: Urinary sugar by urinary test paper; type: in vivo; details: for urinary sugar, Positive ratio: + or higher positive
# [2] = system: c57BL db/db male mice; details: 19-week old
# Method: (§1) 6-Week old c57BL db/db male mice, as being a Type-2 diabetes model animal having homozygote diabetes pathogenic gene (db), were divided in three groups each consisting of 10 animals. A group of healthy c57BL db/+m male mice (10 animals) having heterozygote db gene was used as a control group. The animals were housed in plastic cages for mice at five animals per cage. The animals were fed under feeding conditions at a temperature of 24±1° C. and a relative humidity of 55±5%, where light and darkness were controlled to change every 12 hours, and each cage and bedding materials were exchanged twice a week. The animals were allowed to water ad libitum.
# (§2) Feed CMF for mouse (Oriental Yeast Co.) was used as a basic feed, and 0.1% or 0.3% of 5-campesten-3-one was mixed to the feed to prepare an experimental feed. The resulting feeds were kept at 4° C. before the start of feeding.
# (§3) The animals were autopsied, and the brain, lungs, heart, liver, spleen, pancreas, kidneys, adrenals, and testis were macroscopically examined and weighed.
# [3] = system: c57BL db/db male mice; details: mouse, in vivo
# Method: as §1, §2, §3
# [4] = Body weight; type: in vivo; details: db/db mice, 0.3% in the feed, 19-week old
# [5] = system: c57BL db/db male mice; experiment: Oral glucose tolerance test (OGTT); type: in vivo; details: db/db mice 19-week old; for OGTT blood sugar level: glucose 2 g/kg oral
# Method: The animals were allowed to water ad libitum.
# For oral glucose tolerance test, the animals, starved for 16 hours from the night before of the end of the feeding (19-week old), were orally administered with glucose (2 g/kg), and the bloods were collected from orbital venous plexus at time 0 and after 60 and 120 minutes by using a capillary glass to measure blood sugar levels.
# [6] = system: c57BL db/db male mice; experiment: Change in blood sugar level in Type-2 diabetes model mice fed 5-campesten-3-one in the feed; type: in vivo; details: for blood sugar level relative to control group (second group): 0.1% in the feed
# [7] = 0.1% in the feed, week 7 (period 0 week)
# [8] = 0.1% in the feed, week 9 (period 2 weeks)
# [9] = 0.1% in the feed, week 11 (period 4 weeks)
# [10] = 0.1% in the feed, week 13 (period 6 weeks)
# [11] = 0.1% in the feed, week 15 (period 8 weeks)
# [12] = 0.1% in the feed, week 17 (period 10 weeks)
# [13] = 0.3% in the feed, 7- to 17-week old
# [14] = 0.3% in the feed, week 7 (period 0 week)
# [15] = 0.3% in the feed, week 9 (period 2 weeks)
# [16] = 0.3% in the feed, week 11 (period 4 weeks)
# [17] = 0.3% in the feed, week 13 (period 6 weeks)
# [18] = 0.3% in the feed, week 15 (period 8 weeks)
# [19] = 0.3% in the feed, week 17 (period 10 weeks)
compound,measurement,setting,value
CC(C)[C@H](C)CC[C@@H](C)[C@H]1CC[C@H]2[C@@H]3CC=C4CC(=O)CC[C@]4(C)[C@H]3CC[C@]12C [5-campesten-3-one],onset of positive urinary sugar,[1]; 0.1% in the feed,a delay in giving a positive result was observed
same,"urinary sugar, number of mice graded +",[1]; [7],1
same,"urinary sugar, number of mice graded ++",[1]; [7],0
same,"urinary sugar, number of mice graded +++",[1]; [7],4
same,"urinary sugar, number of mice graded ±",[1]; [7],1
same,"urinary sugar, number of mice graded −",[1]; [7],2
same,"urinary sugar, Positive ratio",[1]; [7],63%
same,"urinary sugar, number of mice graded +",[1]; [8],0
same,"urinary sugar, number of mice graded ++",[1]; [8],2
same,"urinary sugar, number of mice graded +++",[1]; [8],2
same,"urinary sugar, number of mice graded ±",[1]; [8],2
same,"urinary sugar, number of mice graded −",[1]; [8],1
same,"urinary sugar, Positive ratio",[1]; [8],57%
same,"urinary sugar, number of mice graded +",[1]; [9],1
same,"urinary sugar, number of mice graded ++",[1]; [9],0
same,"urinary sugar, number of mice graded +++",[1]; [9],7
same,"urinary sugar, number of mice graded ±",[1]; [9],0
same,"urinary sugar, number of mice graded −",[1]; [9],1
same,"urinary sugar, Positive ratio",[1]; [9],89%
same,"urinary sugar, number of mice graded +",[1]; [10],0
same,"urinary sugar, number of mice graded ++",[1]; [10],0
same,"urinary sugar, number of mice graded +++",[1]; [10],9
same,"urinary sugar, number of mice graded ±",[1]; [10],0
same,"urinary sugar, number of mice graded −",[1]; [10],0
same,"urinary sugar, Positive ratio",[1]; [10],100%
same,"urinary sugar, number of mice graded +",[1]; [11],0
same,"urinary sugar, number of mice graded ++",[1]; [11],1
same,"urinary sugar, number of mice graded +++",[1]; [11],8
same,"urinary sugar, number of mice graded ±",[1]; [11],0
same,"urinary sugar, number of mice graded −",[1]; [11],0
same,"urinary sugar, Positive ratio",[1]; [11],100%
same,"urinary sugar, number of mice graded +",[1]; [12],1
same,"urinary sugar, number of mice graded ++",[1]; [12],0
same,"urinary sugar, number of mice graded +++",[1]; [12],8
same,"urinary sugar, number of mice graded ±",[1]; [12],0
same,"urinary sugar, number of mice graded −",[1]; [12],0
same,"urinary sugar, Positive ratio",[1]; [12],100%
same,"positive ratio of urinary sugar, range over the test period",[1]; [13],14 to 70%
same,positive degrees of urinary sugar compared to control group (second group),"[1]; 0.3% in the feed, almost a half of the mice + (150 mg/dl) or ++ (500 mg/dl)",lower than the results of the control group
same,"urinary sugar, number of mice graded +",[1]; [14],0
same,"urinary sugar, number of mice graded ++",[1]; [14],0
same,"urinary sugar, number of mice graded +++",[1]; [14],1
same,"urinary sugar, number of mice graded ±",[1]; [14],0
same,"urinary sugar, number of mice graded −",[1]; [14],6
same,"urinary sugar, Positive ratio",[1]; [14],14%
same,"urinary sugar, number of mice graded +",[1]; [15],0
same,"urinary sugar, number of mice graded ++",[1]; [15],1
same,"urinary sugar, number of mice graded +++",[1]; [15],0
same,"urinary sugar, number of mice graded ±",[1]; [15],0
same,"urinary sugar, number of mice graded −",[1]; [15],4
same,"urinary sugar, Positive ratio",[1]; [15],20%
same,"urinary sugar, number of mice graded +",[1]; [16],0
same,"urinary sugar, number of mice graded ++",[1]; [16],2
same,"urinary sugar, number of mice graded +++",[1]; [16],3
same,"urinary sugar, number of mice graded ±",[1]; [16],1
same,"urinary sugar, number of mice graded −",[1]; [16],2
same,"urinary sugar, Positive ratio",[1]; [16],63%
same,"urinary sugar, number of mice graded +",[1]; [17],1
same,"urinary sugar, number of mice graded ++",[1]; [17],2
same,"urinary sugar, number of mice graded +++",[1]; [17],2
same,"urinary sugar, number of mice graded ±",[1]; [17],0
same,"urinary sugar, number of mice graded −",[1]; [17],5
same,"urinary sugar, Positive ratio",[1]; [17],50%
same,"urinary sugar, number of mice graded +",[1]; [18],1
same,"urinary sugar, number of mice graded ++",[1]; [18],1
same,"urinary sugar, number of mice graded +++",[1]; [18],2
same,"urinary sugar, number of mice graded ±",[1]; [18],1
same,"urinary sugar, number of mice graded −",[1]; [18],4
same,"urinary sugar, Positive ratio",[1]; [18],44%
same,"urinary sugar, number of mice graded +",[1]; [19],3
same,"urinary sugar, number of mice graded ++",[1]; [19],1
same,"urinary sugar, number of mice graded +++",[1]; [19],3
same,"urinary sugar, number of mice graded ±",[1]; [19],2
same,"urinary sugar, number of mice graded −",[1]; [19],1
same,"urinary sugar, Positive ratio",[1]; [19],70%
same,"autopsy of brain, heart, lungs, livers, pancreas, spleen, kidneys, adrenals","[2]; 0.1% and 0.3% in the feed, some mice with fat liver, as in the control db/db group",no particular abnormality was observed
same,weight of the testis (absolute weight) as % of that of the healthy mice (first group),"[2]; 0.3% in the feed, untreated diabetic mice 50 to 60%",85%
same,general conditions during the experimental period,[3],no abnormal findings such as diarrhea was observed
same,body weight compared to control group (second group),[4],significantly higher
same,OGTT blood sugar levels compared to second group,"[5]; 0.1% in the feed, every measuring point",significantly lower than the levels of the second group at every measuring points
same,OGTT blood sugar level,"[5]; 0.1% in the feed, 60 minutes",703 mg/dL
same,OGTT blood sugar level,"[5]; 0.1% in the feed, 120 minutes",558 mg/dL
same,OGTT blood sugar level,"[5]; 0.1% in the feed, time 0",497 mg/dL
same,OGTT blood sugar level,"[5]; 0.3% in the feed, 60 minutes",almost the same 60-munites value as that of the third group
same,OGTT blood sugar level,"[5]; 0.3% in the feed, 120 minutes",440 mg/dL
same,OGTT blood sugar level,"[5]; 0.3% in the feed, time 0",282 mg/dL
same,blood sugar level relative to control group (second group),[6]; 9-week old,increased
same,blood sugar level relative to control group (second group),[6]; 11-week old,decreased
same,blood sugar level relative to control group (second group),[6]; 17-week old,lower level
same,change with time in blood sugar level,[6]; [13],almost constant level without a significant increase
same,"blood sugar level, initial value","[6]; 0.3% in the feed, 7-week old",270 mg/dL
same,blood sugar level compared to control group (second group),"[6]; 0.3% in the feed, after 9-week old",significantly lower values at every measuring times after 9-week old

# — patent US20060148774A1, “Hypoglycemic agent” (Riken, priority 2001, published 2006)
